# Data: patent US7485434B2, “Method for screening compounds for those that modulate transducers of regulated CREB activity” (The Salk Institute for Biological Studies, priority 2005, dated 2009)
# What was measured:
# [1] = tested on: AMPK (AMP-activated protein kinase); experiment: In vitro kinase assay of GST-TORC2 (161-181) with purified AMPK; assay type: biochemical; conditions: 300 μM AMP
# Description: Specifically, FIG. 20A illustrates the relative phosphorylation of wild-type or Ser171 Ala mutant recombinant GST-TORC2 (161-181) compared to GST only or optimal AMPK peptide substrate (SAMS) by activated AMPK in vitro. Addition of AMP to reactions is shown. The relative incorporation of γ^32P-ATP by each substrate is indicated.
# Recombinant GST-TORC2 (161 -181) wild-type and Ser171 Ala proteins were phosphorylated in vitro with 100 mU purified AMPK (AMP-activated protein kinase) (Upstate Biotech) ±300 μM AMP according to the manufacturer's instructions. Following 15 mm. incubation with γ-^32P-ATP, relative ^32P incorporation was measured by scintillation. GST substrates and SAMS peptide were used at 3 μM in each reaction.
# By contrast with SIK, ATP depletion appears to be uniquely sensed by AMPK, the founding member of this family (see Sakamoto et al., 2004; Lizcano et al., 2004; Bananjee et al., 2004; and Radzuik et al., 2003). The presence of a consensus AMPK phosphorylation site (Ser171) that modulates TORC2 activity in liver prompted examination of whether AMPK inhibits gluconeogenesis via phosphorylation of TORC2 in response to ATP depletion. Activated AMPK phosphorylated wild-type, but not Ser171Ala mutant GST-TORC2 (161-181) peptide in vitro (see FIG. 20A).
# GAL4-CREB = GAL4-CREB transient GAL4 luciferase reporter assay in HIT cells; assay type: cell-based, Hamster
# [2] = tested on: CREB-dependent EVX-1 promoter; experiment: Transient transfection assay of HIT insulinoma cells with CREB-dependent EVX-1 luciferase reporter; assay type: cell-based, Hamster; conditions: for induction of CREB-dependent EVX-1 promoter: single stimulus (KCl 45 mM or forskolin), 6 hr
# Experimental: Specifically, FIG. 1A summarizes the results of a transient transfection assay of HIT insulinoma cells transfected with the CREB-dependent EVX-1 luciferase reporter. Cells were treated with KCl (45 mM) and/or forskolin (10 nM) for six hours as indicated.
# HEK293T, HIT or PC 12 cells were co-transfected with EVX or GAL4-LUC reporter plasmid, RSV-beta galactosidase and FLAG-TORC and/or SIK2 expression plasmids overnight using Lipofectamine 2000 (Invitrogen, Carlsbad, Calif.). DNA/lipid complexes were washed the next day and extracts prepared 24 h (293T and PC 12) or 40 hr (HITs) after transfection. […] Luciferase values were normalized to β-gal activity from co-transfected RSV-beta galactosidase activity in the corresponding sample.
# Hamster insulinoma (HIT) cells were employed to test the relative effects of cAMP and calcium signals on CREB activity. Opening of voltage-sensitive L-type calcium channels in response to KC1 depolarization induced the CREB-dependent EVX-1 promoter (Conknight et al., 2003b) 5-fold in HIT cells, whereas addition of cAMP agonist stimulated the reporter 10-fold (see FIG. 1A). […] Consistent with the effects of calcium channel activity on the EVX-1 promoter, treatment with high glucose (20 mM) induced the expression of the endogenous CREB target gene NR4A2 5-fold in MIN6 insulinoma cells; and co-stimulation with glucose plus exendin-4, an analogue of the incretin hormone GLP-1, enhanced NR4A2 mRNA levels 35-fold (see FIG. 1B).
# phospho (Ser133) CREB = experiment: Western blot of phospho (Ser133) CREB levels in HIT cells; assay type: cell-based, Hamster; conditions: forskolin 10 μM or KCl 45 mM
# Experimental: FIG. 1C is a Western blot assay of phospho (Ser133) CREB levels in HIT cells following treatment with KCl (45 mM), forskolin (10 μM), or both together for 30 minutes.
# FIG. 9 illustrates the time course (in minutes) of CREB Ser133 phosphorylation in HIT cells following treatment with forskolin (10 μM) or KCl (45 mM). […] Immunoreactive bands correspond to phospho (Ser133) CREB (top) and phospho (Ser63) ATF1 (bottom).
# Western blot analyses were conducted on whole cell, cytoplasmic and nuclear extracts with the following rabbit polyclonal antisera: phospho (Ser133) specific affinity purified 5322 and phospho (Ser133) specific antibody from Rockland Immunochemicals, Gilbertsville, Pa.), non-discriminating CREB (244), phosphor (Ser171) CREB, TORC2, pan-TORC, SIK1 and SIK2. 14-3-3 and Hsp90 antibodies were from Santa Cruz (Santa Cruz, Calif.). FLAG-M2 (Sigma) and GAL4 (Santa Cruz) monoclonal antibodies were used at 1:2000 and 1:1000 dilutions, respectively. For quantitative western blotting, goat anti-mouse-800 nm fluorophore conjugate to detect FLAG-M2 was used at 1:40,000 dilution according to manufacturer's instructions (Licor) prior to analysis using the Odyssey detection system. GST-pulldowns were performed as described (Asahara et al., 2001). […]
# [3] = tested on: CREB:CBP complex (KID:KIX interaction); experiment: Mammalian two-hybrid assay GAL4-KID / KIX-VP16 in HIT cells; assay type: cell-based, Hamster
# TORC2 [4] = experiment: EVX-1 reporter assay in HIT cells co-transfected with TORC2 expression vector; assay type: cell-based, Hamster
# Experimental: Cells were treated with forskolin or KCl as indicated.
# SIK1 = SIK1 mRNA levels in primary rat hepatocytes; assay type: cell-based
# Description: FIG. 18F summarizes the effect of FSK treatment on SIK1 mRNA levels in primary rat hepatocytes. Cells were infected with control (GFP) or dominant negative A-CREB adenovirus as indicated.
# Based on the ability of CHX to disrupt TORC2 Ser171 phosphorylation, it was hypothesized that glucagon induces the expression of an inhibitory kinase during the attenuation period. […] Indeed, fasting induced SIK1 mRNA and protein levels in liver 4-fold relative to feeding conditions, whereas expression of other SIK family members (SIK2 and SIK3) was unaffected (see FIGS. 18D and 18E).
# TORC:14-3-3 complexes = experiment: Co-immunoprecipitation of TORC with endogenous 14-3-3 proteins; assay type: cell-based; conditions: basal and cAMP stimulated conditions; CsA 5 μM, OA 100 nM
# Description: FIGS. 5A-5D illustrate that 14-3-3 proteins associate with and repress TORC activity. Specifically, FIG. 5A, top panel, presents the results of a coimmunoprecipitation assay of Flag-TORC1 with endogenous 14-3-3 proteins in HEK293T cells. The effect of forskolin (F) treatment on the TORC 1: 14-3-3 association is shown. […] FIG. 5A, bottom left panel, is a Western blot assay of 14-3-3 proteins recovered from TORC or control 1 gG immunoprecipitates, illustrating the effect of forskolin treatment on endogenous TORC: 14-3-3 complexes in PC12 and HEK293T cells. Input levels of 14-3-3 and TORC proteins are shown. […] FIG. 5A, bottom right panel, illustrates the kinetics of TORC2 dissociation from endogenous 14-3-3 proteins in response to forskolin treatment of HEK293T cells. The levels of Flag-tagged TORC 2 (FLAG-T2) recovered from flag immunoprecipitates at each time point is shown below.
# Rabbit pan-TORC (raised against 1-42 of human TORC1) and TORC2 selective rabbit polyclonal antiserum (raised against amino acids 454-607 of mouse TORC2) were generated as previously described (Conkright et al., 2003a)). Whole cell protein was extracted from cultured HEK293T, HIT, and MIN6 cells in Laemmli SDS sample buffer. Alternatively, whole cell protein was extracted from liver tissue or primary hepatocytes in SDS-urea-lysis buffer. […]
# TORC2 [5] = experiment: TORC2 localization, Ser171 phosphorylation and promoter recruitment in liver after IP injection; assay type: in vivo; conditions: mice; IP administration
# CREB = CREB Ser133 phosphorylation in liver after IP injection (histochemical and Western blot); assay type: in vivo; conditions: mice; intraperitoneal administration
# primary rat hepatocytes = experiment: Glucose output from primary rat hepatocytes; assay type: cell-based; conditions: FSK/DEX
# Experimental: FIG. 17C summarizes the effect of TORC on glucose output from primary rat hepatocytes in response to fasting and feeding signals. Cells were infected with TORC1, TORC2, or control GFP adenovirus and then treated with FSK plus dexamethasone (FSK/DEX) for four hours. The effect of insulin on glucose output is shown.
# Rat primary hepatocytes were prepared from 200-300g of Sprague-Dawley rats by collagenase perfusion method as described previously (see Koo et al., 2004). 1×10^6 cells were plated in 6 well plates with medium 199 (Invitrogen, Carlsbad, Calif.) supplemented by 10% FBS, 10 units/ml penicillin, 10 μg/ml streptomycin, and 10 nM dexamethasone for 3-6 hours. After attachment, cells were infected with adenoviruses for 16 hours. Subsequently, cells were maintained in medium 199 without FBS and dexamethasone for 24 hours (for cDNA expression adenoviruses) or 48 hours (for RNAi adenoviruses) and […] forskolin or 100 nM glucagon for 2 hours unless noted otherwise. For experiments with cycloheximide, 10 μg/ml cycloheximide was added 30 minutes prior to the addition of 100 nM glucagon.
# The ability of TORC2 to modulate gluconeogenic gene expression in hepatocytes exposed to cAMP agonist is consistent with the proposal that this coactivator modulates glucose output from the liver in response to fasting signals.
molecule,measurement,setting,value
Nc1ncnc2c1ncn2[C@@H]1O[C@H](COP(=O)(O)O)[C@@H](O)[C@H]1O [AMP],phosphorylation of TORC by AMPK,[1],induced
[Cl-].[K+] [KCl],induction of GAL4 reporter activity via GAL4-CREB,GAL4-CREB; added individually,2 fold
same,response of truncated GAL4-CREBΔbZIP polypeptide,GAL4-CREB; lacking bZIP domain (aa. 284-341),no induction
same,induction of CREB-dependent EVX-1 promoter,[2],5 fold
same,levels of CREB Ser133 phosphorylation,phospho (Ser133) CREB,increased levels of CREB Ser133 phosphorylation
same,effect on KID:KIX interaction,[3]; KCl depolarization alone,had no effect
same,further potentiation of EVX-1 reporter in TORC2 over-expressing cells,TORC2 [4],30 fold
"C=C[C@@]1(C)CC(=O)[C@]2(O)[C@@]3(C)[C@@H](O)CCC(C)(C)[C@@H]3[C@H](O)[C@H](OC(C)=O)[C@@]2(C)O1 [forskolin, Forskolin]",induction of SIK1 mRNA levels,SIK1,20 fold
same,induction of GAL4 reporter activity via GAL4-CREB,GAL4-CREB; KCl and forskolin in combination,22 fold
same,induction of GAL4 reporter activity via GAL4-CREB,GAL4-CREB; added individually,5 fold
same,stimulation of CREB activity (EVX-1 reporter),[2]; co-stimulation with both forskolin and KCl,80 fold
same,induction of CREB-dependent EVX-1 promoter,[2],10 fold
same,stimulation of KID:KIX interaction (GAL4 luciferase reporter),[3]; 6 hours,20 fold
same,further potentiation of EVX-1 reporter in TORC2 over-expressing cells,TORC2 [4],25 fold
C=C1[C@@H](O)[C@@H]2O[C@]3(CC[C@H](/C=C/[C@@H](C)[C@@H]4CC(C)=C[C@@]5(O[C@H](C[C@@](C)(O)C(=O)O)CC[C@H]5O)O4)O3)CC[C@H]2O[C@@H]1[C@@H](O)C[C@H](C)[C@H]1O[C@@]2(CCCCO2)CC[C@H]1C [okadaic acid],effect of phosphatase inhibitor on TORC:14-3-3 complex formation,TORC:14-3-3 complexes,had no effect on this interaction
insulin,TORC2 phosphorylation at Ser171 in liver,TORC2 [5],highly phosphorylated at Ser171
same,nuclear translocation of hepatic TORC2,TORC2 [5],did not stimulate nuclear entry of TORC2
same,CREB Ser133 phosphorylation in liver,CREB,comparable effects on Ser133 phosphorylation
same,effect on glucose output from TORC over-expressing cells,primary rat hepatocytes,disrupted
